Data as given in patent US20230183179A1, “NOVEL CELL METABOLISM MODULATING COMPOUNDS AND USES THEREOF” (CRESCENTA BIOSCIENCES, priority 2020, published 2023).

Tested on: differentiated 3T3-L1 mouse adipocyte cells
Experiment: Adipocyte glucose consumption in differentiated 3T3-L1 cells (colorimetric glucose assay of the medium)
Type: cell-based
Details: 3T3-L1, 24 h, compound 10 μM, loss of glucose from culture medium, mean fold change (compound/DMSO)
Method: Activity of compounds on adipocyte glucose consumption was tested in differentiated 3T3-L1 mouse adipocyte cells. 3T3-L1 preadipocytes (ATCC) were routinely cultured in a growth medium composed of DMEM high-glucose (Sigma), 10% FBS (Gibco), 10 U/ml penicillin and 10 μg/ml streptomycin (P/S; Gibco). To induce adipogenic differentiation, a confluent layer of 3T3-L1 cells were incubated with the growth medium containing 2 μM rosiglitazone, 1 μM dexamethasone, 500 μM IBMX, and 1 μg/ml insulin (Sigma). Forty-eight (48) hours later (on day 2) and on days 4 and 6, medium of the cells was replaced with fresh medium containing 1 μg/ml insulin. On days 8 and 10, the medium was refreshed with regular growth medium and addition of insulin was omitted. On day 11, medium of the cells were 10 replaced with fresh medium containing either the indicated compounds (10 μM) or the vehicle in which the compounds were dissolved (DMSO). The final concentration of DMSO was 0.1% (v/v). Growth medium containing 0.1% DMSO was incubated in culture wells containing no cells and used as control. 24 hours later, medium was harvested and subjected to centrifugation at 10,000 g for 5 min. Glucose concentration in the supernatants was determined using a 15 colorimetric assay (Glucose Assay Kit I, Eton Biosciences). Glucose consumption in compound and vehicle treated cells was measured as loss of glucose from the culture medium and represented as mean fold change (compound/DMSO)±standard deviation (SD).

SMILES	fold induction at 10 µM
CCCCCCc1ccc2nc([C@H]3C[C@H]3C(=O)O)cc(-c3ccccc3)c2c1 (relative stereo) [cis-2-(6-hexyl-4-phenylquinolin-2-yl)cyclopropane-1-carboxylic acid]	1.36
CCCCCCc1ccc2nc([C@@H]3C[C@H]3C(=O)O)cc(-c3ccccc3)c2c1 (relative stereo) [trans-2-(6-hexyl-4-phenylquinolin-2-yl)cyclopropane-1-carboxylic acid]	1.14
CCCCCCc1ccc2nc(N3CC(C(=O)O)C3)cc(-c3ccccc3)c2c1 [1-(6-hexyl-4-phenylquinolin-2-yl)azetidine-3-carboxylic acid]	1.27
CCCCCCc1ccc2nc(N3CCC(C(=O)O)C3)cc(-c3ccccc3)c2c1 (stereo not shown) [1-(6-hexyl-4-phenylquinolin-2-yl)pyrrolidine-3-carboxylic acid]	1.24
O=C(O)C1CCN(c2cc(-c3ccccc3)c3cc(CCc4ccccc4)ccc3n2)C1 (stereo not shown) [1-[4-phenyl-6-(2-phenylethyl)quinolin-2-yl]pyrrolidine-3-carboxylic acid]	1.21
CCCCCCc1ccc2nc(NCC(=O)O)cc(-c3ccc(F)cc3)c2c1 [2-([4-(4-fluorophenyl)-6-hexylquinolin-2-yl]amino}acetic acid]	1.12
CCCC/C=C/c1ccc2nc(N(C)CC(=O)O)cc(-c3ccccc3)c2c1 [2-({6-[(1E)-hex-1-en-1-yl]-4-phenylquinolin-2-yl}(methyl)amino)acetic acid]	1.32
CCCCc1ccc2nc(N(C)CC(=O)O)cc(-c3ccccc3)c2c1 [2-[(6-butyl-4-phenylquinolin-2-yl)(methyl)amino]acetic acid]	1.37
CCCCCCCc1ccc2nc(N(C)CC(=O)O)cc(-c3ccccc3)c2c1 [2-[(6-heptyl-4-phenylquinolin-2-yl)(methyl)amino]acetic acid]	1.4
CCCCCCc1ccc2nc(N(C)CC(=O)NCCO)cc(-c3ccccc3)c2c1 [2-[(6-hexyl-4-phenylquinolin-2-yl)(methyl)amino]-N-(2-hydroxyethyl)acetamide]	1.11
CCCCCCc1ccc2nc(OC(C)C(=O)O)cc(-c3ccccc3)c2c1 (stereo not shown) [2-[(6-hexyl-4-phenylquinolin-2-yl)oxy]propanoic acid]	1.25
CN(CC(=O)O)c1cc(-c2ccccc2)c2cc(CCc3ccccn3)ccc2n1 [2-[methyl({4-phenyl-6-[2-(pyridin-2-yl)ethyl]quinolin-2-yl})amino]acetic acid]	1.39
CN(CC(=O)O)c1cc(-c2ccccc2)c2cc(/C=C/c3ccccc3)ccc2n1 [2-[methyl({4-phenyl-6-[(1E)-2-phenylethenyl]quinolin-2-yl})amino]acetic acid]	1.21
CCCCCCc1ccc2nc(N(C)CC(=O)O)cc(-c3ccccc3C(=O)O)c2c1 [2-{2-[(carboxymethyl)(methyl)amino]-6-hexylquinolin-4-yl}benzoic acid]	1.17
CCCCCCc1ccc2nc(N(C)CC(=O)O)cc(-c3ccccc3F)c2c1 [2-{[4-(2-fluorophenyl)-6-hexylquinolin-2-yl](methyl)amino}acetic acid]	1.26
CCCCCCc1ccc2nc(N(C)CC(=O)O)cc(-c3c(C)noc3C)c2c1 [2-{[4-(3,5-dimethyl-1,2-oxazol-4-yl)-6-hexylquinolin-2-yl](methyl)amino}acetic acid]	1.22
CCCCCCc1ccc2nc(N(C)CC(=O)O)cc(-c3cccc(C#N)c3)c2c1 [2-{[4-(3-cyanophenyl)-6-hexylquinolin-2-yl](methyl)amino}acetic acid]	1.26
CCc1ccc(-c2ccc3nc(N(C)CC(=O)O)cc(-c4ccccc4)c3c2)cc1 [2-{[6-(4-ethylphenyl)-4-phenylquinolin-2-yl](methyl)amino}acetic acid]	1.06
CCCCCCCCCCc1ccc2nc(N(C)CC(=O)O)cc(-c3ccc(F)cc3)c2c1 [2-{[6-decyl-4-(4-fluorophenyl)quinolin-2-yl](methyl)amino}acetic acid]	1.37
